# Laboratory results: patent US20130216666A1, “CASHEW NUT SHELL LIQUID WITH IMPROVED STABILITY” (IDEMITSU KOSAN CO., LTD., priority 2010, published 2013)
# Assay: Inhibition of decarboxylation reaction when organic acid chelating agent was added (HPLC)
# Type: physicochemical
# Conditions: 80° C.
# [1] = 2% by weight in unheated CNSL, Day 0
# [2] = 2% by weight in unheated CNSL, Day 6
# [3] = 10% by weight in unheated CNSL, Day 0
# [4] = 10% by weight in unheated CNSL, Day 6
smiles,measurement,setting,value
"O=C(O)CC(O)C(=O)O (stereo not drawn) [Malic Acid, malic acid]",Anacardic Acid 15:1 Composition (%),[1],39.93%
same,Anacardic Acid 15:1 concentration,[1],321.20 ppm
same,Anacardic Acid 15:2 Composition (%),[1],14.22%
same,Anacardic Acid 15:2 concentration,[1],114.37 ppm
same,Anacardic Acid 15:3 Composition (%),[1],33.03%
same,Anacardic Acid 15:3 concentration,[1],265.67 ppm
same,Cardanol 15:1 Composition (%),[1],5.30%
same,Cardanol 15:1 concentration,[1],42.62 ppm
same,Cardanol 15:2 Composition (%),[1],2.27%
same,Cardanol 15:2 concentration,[1],18.28 ppm
same,Cardanol 15:3 Composition (%),[1],5.26%
same,Cardanol 15:3 concentration,[1],42.29 ppm
same,Anacardic Acid 15:1 Composition (%),[2],30.38%
same,Anacardic Acid 15:1 concentration,[2],258.72 ppm
same,Anacardic Acid 15:2 Composition (%),[2],10.45%
same,Anacardic Acid 15:2 concentration,[2],88.98 ppm
same,Anacardic Acid 15:3 Composition (%),[2],24.29%
same,Anacardic Acid 15:3 concentration,[2],206.87 ppm
same,Cardanol 15:1 Composition (%),[2],15.35%
same,Cardanol 15:1 concentration,[2],130.72 ppm
same,Cardanol 15:2 Composition (%),[2],5.81%
same,Cardanol 15:2 concentration,[2],49.51 ppm
same,Cardanol 15:3 Composition (%),[2],13.71%
same,Cardanol 15:3 concentration,[2],116.77 ppm
same,Anacardic Acid 15:1 Composition (%),[3],39.28%
same,Anacardic Acid 15:1 concentration,[3],270.21 ppm
same,Anacardic Acid 15:2 Composition (%),[3],14.28%
same,Anacardic Acid 15:2 concentration,[3],98.21 ppm
same,Anacardic Acid 15:3 Composition (%),[3],33.24%
same,Anacardic Acid 15:3 concentration,[3],228.68 ppm
same,Cardanol 15:1 Composition (%),[3],5.47%
same,Cardanol 15:1 concentration,[3],37.65 ppm
same,Cardanol 15:2 Composition (%),[3],2.39%
same,Cardanol 15:2 concentration,[3],16.44 ppm
same,Cardanol 15:3 Composition (%),[3],5.33%
same,Cardanol 15:3 concentration,[3],36.70 ppm
same,Anacardic Acid 15:1 Composition (%),[4],37.43%
same,Anacardic Acid 15:1 concentration,[4],229.25 ppm
same,Anacardic Acid 15:2 Composition (%),[4],13.73%
same,Anacardic Acid 15:2 concentration,[4],84.08 ppm
same,Anacardic Acid 15:3 Composition (%),[4],31.28%
same,Anacardic Acid 15:3 concentration,[4],191.59 ppm
same,Cardanol 15:1 Composition (%),[4],7.28%
same,Cardanol 15:1 concentration,[4],44.57 ppm
same,Cardanol 15:2 Composition (%),[4],3.41%
same,Cardanol 15:2 concentration,[4],20.90 ppm
same,Cardanol 15:3 Composition (%),[4],6.87%
same,Cardanol 15:3 concentration,[4],42.08 ppm
